Values after ≈ are worked out from the molar mass of the structure shown.
What was measured:
[1] = chronic
[2] = test system: Anas platyrhynchos; conditions: chronic/long-term
[3] = test system: Apis mellifera; conditions: acute, mortality
[4] = test system: Cyprinodon variegatus; conditions: acute; duration: 96 hours; mortality
[5] = test system: Folsomia candida; conditions: chronic/long-term; duration: 28 days; reproduction
[6] = test system: Pimephales promelas; conditions: chronic/long-term; duration: 35 days; reproduction
[7] = test system: Poephila guttata; conditions: acute; oral; unspecified; mortality
[8] = test system: Rattus norvegicus
[9] = test system: Xenopus laevis; conditions: chronic/long-term; duration: 21 days; growth
[10] = test system: Aphidius rhopalosiphi; assay: LR50; higher = less toxic; conditions: acute; duration: 48 hours; mortality
[11] = test system: Typhlodromus pyri; assay: LR50; higher = less toxic; conditions: chronic/long-term; duration: 14 days; mortality
[12] = test system: Tagia sp.; conditions: chronic/long-term; growth

SMILES	NOEC [1]	NOAEL [2]	LD50 ([3]; dermal)	LD50 ([3]; oral, unspecified)	LC50 [4]	NOEC [5]	NOEC [6]	LD50 [7]	LD50 ([8]; acute, oral, mortality)	NOAEL ([8]; developmental, development)	NOEC [9]	LR50 [10]	LR50 [11]	NOEC [12]
CC(=NC#N)N(C)Cc1ccc(Cl)nc1 [Acetamiprid]	0.0011 mg/L	9.5 mg/kg-day	9.26 µg/piece	8.85 µg/piece	100 µg/mL (≈ 449 µM)	0.27 mg/kg	9.4 mg/L	5.7 mg/kg-day	146 mg/kg-day	2.5 mg/kg-day	2.6 mg/L	2 g/ha	29.7 g/ha	
CC(=N)N(C)Cc1ccc(Cl)nc1 [Acetamiprid metabolite (IM-1-5)]						12.5 mg/kg								62.5 mg/kg

From EPA's ToxValDB 9.5 (doi:10.2903/j.efsa.2016.4610)
